Reference: PMC5834903, “Phytochemical profiling and in vitro screening for anticholinesterase, antioxidant, antiglucosidase and neuroprotective effect of three traditional medicinal plants for Alzheimer’s Disease and Diabetes Mellitus dual therapy” (BMC Complementary and Alternative Medicine, 2018)
In brackets after ≈: the same amount, converted by molar mass.

Biological target: T1, β–glucosidase
T1 construct: gene emulsin; sweet almond is only the usual commercial preparation
Test: p-nitrophenol release, […] nm
Format: biochemical
Conditions: p-nitrophenyl β-D-glucopyranoside […], phosphate buffer pH […] °C

O=C1O[C@H](CO)[C@@H](O)[C@H](O)[C@H]1O [D-Glucono-δ-lactone]
IC50 Values (μg/mL) / β-Glc: 10.68 ± 0.005 µg/mL (≈ 60 µM)
